Assay results from patent US20240002416A1 (Rheinische-Friedrich-Wilhelms-Universität Bonn, priority 2020, published 2024).

Assays:
human MRGPRX4-83L [1] = target: T1, human MRGPRX4-83L (Homo sapiens, UniProt Q96LA9); test: Calcium assay (human MRGPRX4 83L), recombinant astrocytes; assay type: cell-based; conditions: for EC50: calcium mobilization, MRGPRX4-83L, read-out: EC50 ± SEM; for Emax: read-out: Emax
T1 construct: host or cells: CHO β-arrestin cells
Protocol: (§1) For β-arrestin recruitment assays, recombinant Chinese hamster ovary (CHO) cells expressing the human MRGPRX4 were used (DiscoverX/Eurofins) which allowed to measure β-galactosidase complementation upon β-arrestin recruitment. For calcium mobilization assays, recombinant astrocytes expressing MRGPX4-83L, or LN229 glioblastoma cells natively expressing the MRGPRX4-83S, were used.
(§2) The assays were performed as previously described for other rhodopsin-like GPCRs (Müller, C.E.; 8-Benzamidochromen-4-one-2-carboxylic acids: potent and selective agonists for the orphan G protein-coupled receptor GPR35. J. Med. Chem. 2013, 56:5182-97; Müller, C.E. Molecular Recognition of Agonists and Antagonists by the Nucleotide-Activated G Protein-Coupled P2Y2 Receptor. J. Med. Chem. 2017, 60:8425-8440).

human MRGPRX4-83L [2] = target: T1, human MRGPRX4-83L; test: β-arrestin assay (CHO β-arrestin ARMS1-ProLink 2 human MRGPRX4 83L); assay type: cell-based; conditions: for Emax: read-out: Emax; for EC50: β-arrestin recruitment, CHO cells, MRGPRX4-83L, read-out: EC50 ± SEM; for IC50: inhibition of the effect of 2.6 μM B-16
Protocol: as §1, §2

MRGPRX4-83S [3] = target: T2, MRGPRX4-83S (Homo sapiens, UniProt Q96LA9, L83S); test: Calcium assay (human glioblastoma LN229 cells expressing the MRGPRX4-83S); assay type: cell-based; design: LN229 glioblastoma cells natively expressing the MRGPRX4-83S; endogenous in cells; host or cells: LN229 human glioblastoma cells; conditions: for Emax: LN-229, efficacy based on 30 μM H-1 (set as 100%), read-out: Emax; for EC50: calcium mobilization, LN229 cells, MRGPRX4-83S, read-out: EC50 ± SEM
T2 sequence (Q96LA9 whole entry L83S): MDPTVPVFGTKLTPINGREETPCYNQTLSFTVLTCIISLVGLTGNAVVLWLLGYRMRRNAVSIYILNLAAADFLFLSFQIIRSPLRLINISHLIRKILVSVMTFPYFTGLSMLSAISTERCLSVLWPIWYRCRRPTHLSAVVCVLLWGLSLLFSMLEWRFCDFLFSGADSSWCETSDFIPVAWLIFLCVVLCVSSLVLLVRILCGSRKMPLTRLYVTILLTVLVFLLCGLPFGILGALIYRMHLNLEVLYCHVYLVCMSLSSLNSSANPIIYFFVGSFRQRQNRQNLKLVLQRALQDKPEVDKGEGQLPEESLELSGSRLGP
Protocol: as §1, §2

MRGPRX4-83S [4] = target: T2, MRGPRX4-83S; test: β-arrestin assay (CHO β-arrestin human MRGPRX4-83S); assay type: cell-based; design: host or cells: CHO β-arrestin cells; conditions: for Emax: efficacy based on 100 nM B-16 (set as 100%), read-out: Emax; for EC50: β-arrestin recruitment, CHO cells, MRGPRX4-83S, read-out: EC50 ± SEM
Protocol: as §1, §2

[5] = Table 4, efficacy based on maximal effect of 1 μM B-16 (set as 100%)
[6] = Table 4, efficacy based on maximal effect of 100 nM B-16 (set as 100%)
[7] = Table 1, efficacy based on maximal effect of 1 μM B-16 (set as 100%)
[8] = Table 1, efficacy based on maximal effect of 100 nM B-16 (set as 100%)
[9] = Table 1, means of 3-4 experiments

T1 sequence (Q96LA9 whole entry): as the sequence (Q96LA9 whole entry L83S) above, with S83L counted along it

SMILES | melting point [°C] | EC50 (human MRGPRX4-83L [1]; Table 4) [nM] | Emax (human MRGPRX4-83L [1]; [5]) [%] | Emax (human MRGPRX4-83L [2]; [6]) [%] | EC50 (human MRGPRX4-83L [2]; Table 4) [nM] | EC50 (human MRGPRX4-83L [1]; Table 1) [nM] | Emax (human MRGPRX4-83L [1]; [7]) [%] | EC50 (human MRGPRX4-83L [2]; [9]) [nM] | EC50 (MRGPRX4-83S [3]; Table 2) [nM] | Emax (MRGPRX4-83S [4]; Table 2) [%] | EC50 (MRGPRX4-83S [4]; Table 2) [nM] | further results
C#CCn1c(=O)c2c(nc(CCc3ccccc3I)n2C(C)C)n(CCCCP(=O)(O)O)c1=O [B-47, (4-(8-(2-Iodophenethyl)-7-isopropyl-2,6-dioxo-1-(prop-2-yn-1-yl)-1,2,6,7-tetrahydro-3H-purin-3-yl)butyl)phosphonic acid] | 123 to 125 | 1.16 ± 0.26 | 118 | 97 | 6.85 ± 7.18 |  |  |  |  |  |  | 
C#CCn1c(=O)c2c(nc(CCc3ccccc3Br)n2CCO)n(CCCCP(=O)(O)O)c1=O [B-20, (4-(8-(2-Bromophenethyl)-7-(2-hydroxyethyl)-2,6-dioxo-1-(prop-2-yn-1-yl)-1,2,6,7-tetrahydro-3H-purin-3-yl)butyl)phosphonic acid] | 157 to 160 |  |  |  |  | 1.86 ± 0.45 | 103 | 32.9 ± 7.5 |  |  |  | Emax (human MRGPRX4-83L [2]; [8]): 124%
C#CCn1c(=O)c2c(nc(CCc3ccccc3Br)n2CC)n(CCCCCP(=O)(O)O)c1=O [B-54, (5-(8-(2-Bromophenethyl)-7-ethyl-2,6-dioxo-1-(prop-2-yn-1-yl)-1,2,6,7-tetrahydro-3H-purin-3-yl)pentyl)phosphonic acid] | 146 to 148 | 20.1 ± 4.1 | 103 | 96 | 534 ± 170 |  |  |  |  |  |  | 
C#CCn1c(=O)c2c(nc(CCc3ccccc3Br)n2C)n(CCCCCCP(=O)(O)O)c1=O [B-56, (6-(8-(2-Bromophenethyl)-7-methyl-2,6-dioxo-1-(prop-2-yn-1-yl)-1,2,6,7-tetrahydro-3H-purin-3-yl)hexyl)phosphonic acid] | 221 to 223 | 57.8 ± 18.9 | 102 | 91 | 576 ± 83 |  |  |  |  |  |  | 
C#CCn1c(=O)c2c(nc(CCc3ccc(Br)cc3)n2CC)n(CCCCP(=O)(O)O)c1=O [B-35, (4-(8-(4-Bromophenethyl)-7-ethyl-2,6-dioxo-1-(prop-2-yn-1-yl)-1,2,6,7-tetrahydro-3H-purin-3-yl)butyl)phosphonic acid] | 169 to 171 | 306 ± 111 | 41 | 84 | 521 ± 142 |  |  |  |  |  |  | 
C#CCn1c(=O)c2c(nc(CCc3ccccc3Br)n2CC)n(CCCCCCP(=O)(O)O)c1=O [B-57, (6-(8-(2-Bromophenethyl)-7-ethyl-2,6-dioxo-1-(prop-2-yn-1-yl)-1,2,6,7-tetrahydro-3H-purin-3-yl)hexyl)phosphonic acid] | 223 to 225 | 474 ± 152 | 98 | 97 | 766 ± 357 |  |  |  |  |  |  | 
C#CCn1c(=O)c2c(nc(CCc3ccccc3Br)n2CC)n(CCCCP(=O)(O)O)c1=O [B-19, (4-(8-(2-Bromophenethyl)-7-ethyl-2,6-dioxo-1-(prop-2-yn-1-yl)-1,2,6,7-tetrahydro-3H-purin-3-yl)butyl)phosphonic acid] | 192 to 195 |  |  |  |  | 4.26 ± 0.56 | 115 | 25.9 ± 7.9 |  |  |  | Emax (human MRGPRX4-83L [2]; [8]): 144%
C#CCn1c(=O)c2[nH]c(CCc3ccccc3Br)nc2n(CCCCCCP(=O)(O)O)c1=O [B-55, (6-(8-(2-Bromophenethyl)-2,6-dioxo-1-(prop-2-yn-1-yl)-1,2,6,7-tetrahydro-3H-purin-3-yl)hexyl)phosphonic acid] | 225 to 227 | 57.8 ± 18.9 | 94 | 98 | 857 ± 220 |  |  |  |  |  |  | 
C#CCn1c(=O)c2c(nc(CCc3cccc(C(F)(F)F)c3)n2C)n(CCCCP(=O)(O)O)c1=O [B-16, (4-(7-Methyl-2,6-dioxo-1-(prop-2-yn-1-yl)-8-(3-(trifluoromethyl)phenethyl)-1,2,6,7-tetrahydro-3H-purin-3-yl)butyl)phosphonic acid] |  |  |  |  |  | 32.4 ± 5.6 |  | 370 ± 50 | 3.17 ± 0.6 | 100 | 2.28 ± 0.16 | Emax (MRGPRX4-83S [3]; Table 2): 137%; Emax at 1 µM (human MRGPRX4-83L [1]; [7]): 100%; Emax at 0.1 µM (human MRGPRX4-83L [2]; [8]): 100%
CCn1c(=O)c2[nH]c(CCc3cccc(OC)c3)nc2n(CCCCP(=O)(O)O)c1=O [B-12, (4-(1-Ethyl-8-(3-methoxyphenethyl)-2,6-dioxo-1,2,6,7-tetrahydro-3H-purin-3-yl)butyl)phosphonic acid] |  |  |  |  |  | 3800 ± 190 | 104 | > 10000 | 214 ± 51 | 102 | 1190 ± 50 | Emax (MRGPRX4-83S [3]; Table 2): 94%; value in brackets beside IC50 >10 (human MRGPRX4-83L [2]; Table 1, bracketed value ± spread in IC50 column, not defined, inhibition of 2.6 μM B-16): −27 ± 9; IC50 (human MRGPRX4-83L [2]; Table 1): > 10000 nM
C#CCn1c(=O)c2c(nc(CCc3cccc(OC)c3)n2C)n(CCCCP(=O)(O)O)c1=O [B-15, (4-(8-(3-Methoxyphenethyl)-7-methyl-2,6-dioxo-1-(prop-2-yn-1-yl)-1,2,6,7-tetrahydro-3H-purin-3-yl)butyl)phosphonic acid] |  |  |  |  |  | 333 ± 7 | 113 | 6280 ± 1380 | 19.2 ± 3.5 | 140 | 30 ± 5.8 | Emax (MRGPRX4-83S [3]; Table 2): 132%; Emax (human MRGPRX4-83L [2]; [8]): 141%
C#CCn1c(=O)c2[nH]c(/C=C/c3cccc(OC)c3)nc2n(CCCCP(=O)(O)O)c1=O [J-1, (E)-(4-(8-(3-Methoxystyryl)-2,6-dioxo-1-(prop-2-yn-1-yl)-1,2,6,7-tetrahydro-3H-purin-3-yl)butyl)phosphonic acid] |  |  |  |  |  | > 10000 |  | > 10000 | 11.6 ± 1.3 | 65 | 200 ± 59 | 
CCCn1c(=O)c2[nH]c(C3CCCC3)nc2n(CCCCP(=O)(O)O)c1=O [J-2, (4-(8-Cyclopentyl-2,6-dioxo-1-propyl-1,2,6,7-tetrahydro-3H-purin-3-yl)butyl)phosphonic acid] |  |  |  |  |  | > 50000 |  | > 10000 | > 10000 | 76 | 6360 ± 1630 | IC50 (human MRGPRX4-83L [1]): > 50000 nM; IC50 (human MRGPRX4-83L [2]; Table 1): > 10000 nM
COc1cccc(CCc2nc3c([nH]2)c(=O)n(CC2CCC2)c(=O)n3CCCCP(=O)(O)O)c1 [B-13, (4-(1-(Cyclobutylmethyl)-8-(3-methoxyphenethyl)-2,6-dioxo-1,2,6,7-tetrahydro-3H-purin-3-yl)butyl)phosphonic acid] |  |  |  |  |  | 1600 ± 460 | 94 | 48300 ± 14100 | 59.9 ± 10.7 | 93 | 68.9 ± 17 | Emax (MRGPRX4-83S [3]; Table 2): 91%; Emax (human MRGPRX4-83L [2]; [8]): 96%
C#CCn1c(=O)c2c(nc(Cc3cccc4ccccc34)n2CC)n(CCCCP(=O)(O)O)c1=O [B-58, (4-(7-Ethyl-8-(naphthalen-1-ylmethyl)-2,6-dioxo-1-(prop-2-yn-1-yl)-1,2,6,7-tetrahydro-3H-purin-3-yl)butyl)phosphonic acid] | 138 to 140 |  |  |  |  |  |  |  |  |  |  | 
C#CCn1c(=O)c2c(nc(Cc3ccc4ccccc4c3)n2CC)n(CCCCP(=O)(O)O)c1=O [B-58] |  | > 10000 |  |  | > 10000 |  |  |  |  |  |  | IC50 (MRGPRX4-83S [3]): 31.7 ± 19.1 nM; EC50 (MRGPRX4-83S [3]; Table 3): > 10000 nM; EC50 (MRGPRX4-83S [4]; Table 3): > 100000 nM
